Values joined by “and” are separate entries in the source; they are usually repeats but may differ in a detail not shown here. Equal entries are not always repeated. Toxic doses and inconclusive results are not listed. The calls were made as follows: active = survival T/C of 150% or more; inactive = T/C below 125% in these data.
System: P388 leukemia ip, CD2F1 mice, survival T/C
Assay: NCI In Vivo Anticancer Drug Screen. Data for tumor model P388 Leukemia (intraperitoneal) in CD2F1 (CDF1) mice
Settings: endpoint: median survival time, higher = longer survival
In short: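 Mice carrying the transplanted tumor received test compound or vehicle. Survival was recorded in each group, and the value is the treated-group measurement divided by that of the vehicle-treated control group.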

[1] = dose: 50.0 mg/kg/injection, schedule: Q01DX009 (ip), vehicle: Klucel (hydroxypropylcellulose) (HPC)
[2] = dose: 100.0 mg/kg/injection, schedule: Q01DX009 (ip), vehicle: Klucel (hydroxypropylcellulose) (HPC)
[3] = dose: 200.0 mg/kg/injection, schedule: Q01DX009 (ip), vehicle: Klucel (hydroxypropylcellulose) (HPC)
[4] = dose: 25.0 mg/kg/injection, schedule: Q01DX009 (ip), vehicle: saline with Tween-80
[5] = dose: 50.0 mg/kg/injection, schedule: Q01DX009 (ip), vehicle: saline with Tween-80
[6] = dose: 100.0 mg/kg/injection, schedule: Q01DX009 (ip), vehicle: saline with Tween-80
[7] = dose: 12.5 mg/kg/injection, schedule: Q01DX009 (ip), vehicle: Klucel (hydroxypropylcellulose) (HPC)
[8] = dose: 25.0 mg/kg/injection, schedule: Q01DX009 (ip), vehicle: Klucel (hydroxypropylcellulose) (HPC)
[9] = dose: 50.0 mg/kg/injection, schedule: Q01DX009 (ip), vehicle: saline
[10] = dose: 100.0 mg/kg/injection, schedule: Q01DX009 (ip), vehicle: saline
[11] = dose: 25.0 mg/kg/injection, schedule: Q04DX003 (ip), vehicle: saline
[12] = dose: 50.0 mg/kg/injection, schedule: Q04DX003 (ip), vehicle: saline
[13] = dose: 60.0 mg/kg/injection, schedule: Q01DX005 (ip), vehicle: saline with Tween-80
[14] = dose: 120.0 mg/kg/injection, schedule: Q01DX005 (ip), vehicle: saline with Tween-80
[15] = dose: 240.0 mg/kg/injection, schedule: Q01DX005 (ip), vehicle: saline with Tween-80
[16] = dose: 50.0 mg/kg/injection, schedule: Q01DX005 (ip), vehicle: saline
[17] = dose: 100.0 mg/kg/injection, schedule: Q01DX005 (ip), vehicle: saline
[18] = dose: 200.0 mg/kg/injection, schedule: Q01DX005 (ip), vehicle: saline
[19] = dose: 50.0 mg/kg/injection, schedule: Q01DX005 (ip), vehicle: saline with Tween-80
[20] = dose: 100.0 mg/kg/injection, schedule: Q01DX005 (ip), vehicle: saline with Tween-80
[21] = dose: 200.0 mg/kg/injection, schedule: Q01DX009 (ip), vehicle: saline
[22] = dose: 200.0 mg/kg/injection, schedule: Q01DX005 (ip), vehicle: saline with Tween-80
[23] = dose: 25.0 mg/kg/injection, schedule: Q01DX009 (ip), vehicle: saline

Measured: T/C

CN1C(=O)C(n2[nH]c(=O)n(-c3ccccc3)c2=O)C(=O)N(C)C1=O
inactive: [1] 99 % of control | [2] 89 % of control | [3] 103 % of control

Cc1ccc([SeH])cc1.[Sn]
inactive: [4] 92 % of control | [5] 94 % of control | [6] 86 % of control

COc1ccc2nc(C)cc(N/N=C/c3cccc(C)n3)c2c1
inactive: [7] 99 % of control and 104 % of control | [8] 99 % of control and 105 % of control | [1] 113 % of control and 122 % of control

COc1cccc(CCCC(=O)O)c1
inactive: [2] 100 % of control | [3] 100 % of control | dose: 400.0 mg/kg/injection, schedule: Q01DX009 (ip), vehicle: Klucel (hydroxypropylcellulose) (HPC) 104 % of control

C(CCCSC1=NCCN1)CCSC1=NCCN1
inactive: [9] 103 % of control | [10] 100 % of control

CC1=C(/C=C/Cl)CC(Cl)C(C)(Cl)C1 (stereo not given)
inactive: dose: 2.5 mg/kg/injection, schedule: Q01DX009 (ip), vehicle: Klucel (hydroxypropylcellulose) (HPC) 102 % of control | dose: 5.0 mg/kg/injection, schedule: Q01DX009 (ip), vehicle: Klucel (hydroxypropylcellulose) (HPC) 102 % of control | dose: 10.0 mg/kg/injection, schedule: Q01DX009 (ip), vehicle: Klucel (hydroxypropylcellulose) (HPC) 93 % of control | dose: 20.0 mg/kg/injection, schedule: Q01DX009 (ip), vehicle: Klucel (hydroxypropylcellulose) (HPC) 99 % of control

CCN(CC)CCOC(=O)c1c(C)cc(C)cc1C
inactive: [11] 100 % of control | [12] 106 % of control | dose: 100.0 mg/kg/injection, schedule: Q04DX003 (ip), vehicle: saline 93 % of control

O=C(CCCl)Nc1cccc(CCC(=O)c2cccc(NC(=O)CCCl)c2)c1
inactive: dose: 15.0 mg/kg/injection, schedule: Q01DX005 (ip), vehicle: saline with Tween-80 103 % of control | dose: 30.0 mg/kg/injection, schedule: Q01DX005 (ip), vehicle: saline with Tween-80 103 % of control | [13] 102 % of control and 103 % of control | [14] 103 % of control | [15] 110 % of control

COC(=O)c1nc(OC)nc(OC)c1C#CCOC1CCCCO1 (stereo not given)
inactive: dose: 12.5 mg/kg/injection, schedule: Q01DX009 (ip), vehicle: distilled water + Tween-80 92 % of control | dose: 25.0 mg/kg/injection, schedule: Q01DX009 (ip), vehicle: distilled water + Tween-80 108 % of control | dose: 50.0 mg/kg/injection, schedule: Q01DX009 (ip), vehicle: distilled water + Tween-80 94 % of control | dose: 100.0 mg/kg/injection, schedule: Q01DX009 (ip), vehicle: distilled water + Tween-80 94 % of control

CCCCC(CC)C(=O)OC(C)C(N)=O (stereo not given)
inactive: [16] 105 % of control | [17] 101 % of control | [18] 101 % of control

O=C(N/C(=C\c1nc2ccccc2s1)c1ccccc1O)c1ccccc1
inactive: dose: 100.0 mg/kg/injection, schedule: Q04DX002 (ip), vehicle: saline with Tween-80 104 % of control | dose: 200.0 mg/kg/injection, schedule: Q04DX002 (ip), vehicle: saline with Tween-80 99 % of control | dose: 400.0 mg/kg/injection, schedule: Q04DX002 (ip), vehicle: saline with Tween-80 103 % of control

CSc1nc(Cl)c(Br)c(N2CC2)n1
inactive: [19] 100 % of control | [20] 107 % of control

O=c1c2ccccc2c(=O)n2n1CCC2O (stereo not given)
inactive: [9] 108 % of control | [10] 101 % of control | [21] 101 % of control

Oc1c2c(c3cccc4cccc1c43)=Nc1ccccc1S2
inactive: [19] 95 % of control | [20] 94 % of control | [22] 90 % of control

Clc1ccc(C(CCc2ccc(Br)cc2)Cn2ccnc2)c(Cl)c1 (stereo not given)
inactive: [4] 88 % of control | [5] 87 % of control

O=C(N/N=C\c1ccc(N(CCCl)CCCl)cc1)c1cccnc1
inactive: [7] 107 % of control | [8] 107 % of control

COC(=O)C1CCOCCCOCCCOCCCOCCCOCCCC1=O (stereo not given)
inactive: [19] 100 % of control | [20] 105 % of control | [22] 100 % of control

CN(C)CCN(C)C(=N)N
inactive: [23] 100 % of control and 105 % of control | [9] 104 % of control | [10] 91 % of control and 96 % of control | [21] 88 % of control and 94 % of control

O=C1c2ccccc2CN1Cc1ccc(Cl)c(Cl)c1
inactive: [5] 96 % of control | [6] 89 % of control | dose: 200.0 mg/kg/injection, schedule: Q01DX009 (ip), vehicle: saline with Tween-80 91 % of control

CCN(C(=O)CCl)c1ccccc1C
inactive: dose: 50.0 mg/kg/injection, schedule: Q04DX003 (ip), vehicle: saline with Tween-80 100 % of control | dose: 100.0 mg/kg/injection, schedule: Q04DX003 (ip), vehicle: saline with Tween-80 100 % of control

CC(=O)c1ccc2c(c1)N(CCCN1CCN(CCO)CC1)c1ccccc1S2
inactive: dose: 1.56 mg/kg/injection, schedule: Q01DX009 (ip), vehicle: saline 116 % of control | dose: 3.12 mg/kg/injection, schedule: Q01DX009 (ip), vehicle: saline 103 % of control | dose: 6.25 mg/kg/injection, schedule: Q01DX009 (ip), vehicle: saline 107 % of control | dose: 6.25 mg/kg/injection, schedule: Q04DX003 (ip), vehicle: saline 91 % of control | dose: 12.5 mg/kg/injection, schedule: Q01DX009 (ip), vehicle: saline 108 % of control | dose: 12.5 mg/kg/injection, schedule: Q04DX003 (ip), vehicle: saline 103 % of control | [23] 106 % of control | [11] 107 % of control | [9] 109 % of control | [12] 119 % of control

CCOC(=O)C1=C(Nc2ccc(Br)cc2)C(=O)N(CC)C1
inactive: [13] 109 % of control | [14] 100 % of control | [15] 106 % of control

O=C(Nc1ccc(C(=O)O)c(O)c1)Nc1ccccc1C(F)(F)F
inactive: [13] 103 % of control | [14] 90 % of control | [15] 103 % of control

CCN(CC)c1cc(C(=O)O)cc(N(CC)CC)n1
inactive: dose: 6.25 mg/kg/injection, schedule: Q01DX005 (ip), vehicle: sodium bicarbonate 104 % of control | dose: 12.5 mg/kg/injection, schedule: Q01DX005 (ip), vehicle: Klucel (hydroxypropylcellulose) (HPC) 98 % of control and 100 % of control | dose: 12.5 mg/kg/injection, schedule: Q01DX005 (ip), vehicle: sodium bicarbonate 114 % of control | dose: 25.0 mg/kg/injection, schedule: Q01DX005 (ip), vehicle: Klucel (hydroxypropylcellulose) (HPC) 98 % of control and 106 % of control | dose: 25.0 mg/kg/injection, schedule: Q01DX005 (ip), vehicle: sodium bicarbonate 120 % of control | dose: 50.0 mg/kg/injection, schedule: Q01DX005 (ip), vehicle: Klucel (hydroxypropylcellulose) (HPC) 100 % of control and 120 % of control and 123 % of control | dose: 50.0 mg/kg/injection, schedule: Q01DX005 (ip), vehicle: sodium bicarbonate 121 % of control

OCC1=CCN2CC[C@@H](O)[C@@H]12
inactive: [16] 93 % of control | [17] 107 % of control | [18] 93 % of control

CC1(C)COC(c2c(F)cccc2Cl)=N1
inactive: [19] 100 % of control | [20] 100 % of control | [22] 98 % of control

O=c1[nH]cnc2cc(NCc3ccccc3)c([N+](=O)[O-])cc12
inactive: dose: 100.0 mg/kg/injection, schedule: Q04DX003 (ip), vehicle: Klucel (hydroxypropylcellulose) (HPC) 100 % of control | dose: 200.0 mg/kg/injection, schedule: Q04DX003 (ip), vehicle: Klucel (hydroxypropylcellulose) (HPC) 96 % of control | dose: 400.0 mg/kg/injection, schedule: Q04DX003 (ip), vehicle: Klucel (hydroxypropylcellulose) (HPC) 94 % of control

Cc1cccc(NC(=S)NC2C(=O)Nc3ccccc32)c1 (stereo not given)
inactive: [13] 102 % of control | [14] 100 % of control | [15] 98 % of control
